Experimental data published in ChEMBL document CHEMBL1156544, “Bioactive brominated metabolites from the red sea sponge Suberea mollis” (2008).
The source made the active and inactive calls. The rule behind the calls is not given here.

How the values were obtained:
[1] = tested on: Staphylococcus aureus; test: Antibacterial activity against Staphylococcus aureus ATCC 6538P assessed as inhibition zone diameter after 24 hrs by agar diffusion method; assay type: functional
[2] = tested on: Pseudomonas aeruginosa; test: Antibacterial activity against Pseudomonas aeruginosa ATCC 9027 assessed as inhibition zone diameter after 24 hrs by agar diffusion method; assay type: functional
[3] = tested on: Klebsiella pneumoniae; test: Antibacterial activity against Klebsiella pneumoniae ATCC 10032 assessed as inhibition zone diameter after 24 hrs by agar diffusion method; assay type: functional
[4] = tested on: Radical scavenging activity; test: Antioxidant activity assessed as DPPH radical scavenging activity at 6 ug; assay type: functional
[5] = tested on: Staphylococcus aureus; test: Antibacterial activity against Staphylococcus aureus ATCC 6538P assessed as inhibition zone diameter at 30 ug/disk after 24 hrs by agar diffusion method; assay type: functional; conditions: read-out: IZ
[6] = tested on: Pseudomonas aeruginosa; test: Antibacterial activity against Pseudomonas aeruginosa ATCC 9027 assessed as inhibition zone diameter at 30 ug/disk after 24 hrs by agar diffusion method; assay type: functional; conditions: ATCC 9027, 24 h, read-out: IZ
[7] = tested on: Klebsiella pneumoniae; test: Antibacterial activity against Klebsiella pneumoniae ATCC 10032 assessed as inhibition zone diameter at 30 ug/disk after 24 hrs by agar diffusion method; assay type: functional; conditions: ATCC 10032, 24 h, read-out: IZ
[8] = tested on: Staphylococcus aureus; test: Antibacterial activity against Staphylococcus aureus ATCC 6538P assessed as inhibition zone diameter at 5 ug/disk after 24 hrs by agar diffusion method; assay type: functional, organism-based
[9] = tested on: Pseudomonas aeruginosa; test: microbe, parasite or virus in culture; conditions: ATCC 9027, 24 h, read-out: IZ
Description: Antibacterial activity against Pseudomonas aeruginosa ATCC 9027 assessed as inhibition zone diameter at 5 ug/disk after 24 hrs by agar diffusion method

[10] = tested on: Klebsiella pneumoniae; test: microbe, parasite or virus in culture; conditions: ATCC 10032, 24 h, read-out: IZ
Description: Antibacterial activity against Klebsiella pneumoniae ATCC 10032 assessed as inhibition zone diameter at 5 ug/disk after 24 hrs by agar diffusion method

[11] = tested on: Staphylococcus aureus; test: Antibacterial activity against Staphylococcus aureus ATCC 6538P assessed as inhibition zone diameter at 15 ug/disk after 24 hrs by agar diffusion method; assay type: functional; conditions: read-out: IZ
[12] = tested on: Pseudomonas aeruginosa; test: Antibacterial activity against Pseudomonas aeruginosa ATCC 9027 assessed as inhibition zone diameter at 15 ug/disk after 24 hrs by agar diffusion method; assay type: functional, organism-based
[13] = tested on: Klebsiella pneumoniae; test: Antibacterial activity against Klebsiella pneumoniae ATCC 10032 assessed as inhibition zone diameter at 15 ug/disk after 24 hrs by agar diffusion method; assay type: functional, organism-based

Row | Structure (SMILES) | inhibition zone (IZ) [1] [mm] | Activity [2] | Activity [3] | other results
1 | COC1=C(Br)[C@H](O)[C@](O)(CC#N)C=C1Br | 9 |  |  | inhibition zone (IZ) [2]: 11 mm; inhibition zone (IZ) [3]: 7 mm
2 | COC1=C(Br)[C@@H]2OC(=O)C[C@]2(O)C=C1Br | 5 | inactive | inactive | 
3 | CCOC(=O)Cc1cc(Br)c(O)c(Br)c1O |  |  |  | Activity [4]: Active
4 | COC1=C(Br)[C@H](O)[C@@]2(C=C1Br)CC(C(=O)NCCCOc1c(Br)cc(CCNC(=O)C3=NO[C@]4(C=C(Br)C(OC)=C(Br)[C@@H]4O)C3)cc1Br)=NO2 |  | inactive | inactive | Activity [1]: inactive
5 | COC1=C(Br)[C@H](O)[C@@]2(C=C1Br)CC(C(=O)NCCCCNC(=O)C1=NO[C@]3(C=C(Br)C(OC)=C(Br)[C@@H]3O)C1)=NO2 [AEROTHIONIN] | 5 | inactive |  | inhibition zone (IZ) [3]: 3 mm
6 | O=C(N[C@H](CO)[C@H](O)c1ccc([N+](=O)[O-])cc1)C(Cl)Cl [CHLORAMPHENICOL] |  |  |  | zone of inhibition at 30 µg/disc [5]: 9 mm; zone of inhibition at 30 µg/disc [6]: 7 mm; zone of inhibition at 30 µg/disc [7]: 10 mm
7 | O=C(O)c1cn(C2CC2)c2cc(N3CCNCC3)c(F)cc2c1=O [CIPROFLOXACIN] |  |  |  | Activity [8]: inactive; zone of inhibition at 5 µg/disc [9]: 2 mm; zone of inhibition at 5 µg/disc [10]: 8 mm
8 | CC[C@H]1OC(=O)[C@H](C)[C@@H](O[C@H]2C[C@@](C)(OC)[C@@H](O)[C@H](C)O2)[C@H](C)[C@@H](O[C@@H]2O[C@H](C)C[C@H](N(C)C)[C@H]2O)[C@](C)(O)C[C@@H](C)C(=O)[C@H](C)[C@@H](O)[C@]1(C)O [ERYTHROMYCIN] |  |  |  | zone of inhibition at 15 µg/disc [11]: 8 mm; Activity [12]: inactive; Activity [13]: inactive
9 | COC1=C(Br)[C@H](O)[C@@]2(C=C1Br)CC(C(=O)NCCCCCNC(=O)C1=NO[C@]3(C=C(Br)C(OC)=C(Br)[C@@H]3O)C1)=NO2 [HOMOAEROTHIONIN] | 3 | inactive | inactive | 
10 | CCOC(=O)NCCCCNC(=O)C1=NO[C@]2(C=C(Br)C(OC)=C(Br)[C@@H]2O)C1 [SUBEREAMOLLINE A] | 3 | inactive | inactive | 
11 | COC(=O)Cc1cc(Br)c(O)c(Br)c1O [SUBEREAPHENOL B] | 5 | inactive | inactive | Activity [4]: Active
